Data on one compound can be found in paper PMC11555261, “Targeting USP11 regulation by a novel lithium-organic coordination compound improves neuropathologies and cognitive functions in Alzheimer transgenic mice” (EMBO Molecular Medicine, 2024).

The target in this test is T1, USP11 (recombinant USP11 protein) (Homo sapiens, UniProt P51784).
T1 construct: commercial recombinant human protein from Sf9 insect cells; His tag implied by RED-tris-NTA labelling
The experiment in a line: microscale thermophoresis. The test is classed as binding. In general terms: In MST a laser heats a spot of the sample, and binding alters the fluorescence response.

T1 sequence (P51784 whole entry): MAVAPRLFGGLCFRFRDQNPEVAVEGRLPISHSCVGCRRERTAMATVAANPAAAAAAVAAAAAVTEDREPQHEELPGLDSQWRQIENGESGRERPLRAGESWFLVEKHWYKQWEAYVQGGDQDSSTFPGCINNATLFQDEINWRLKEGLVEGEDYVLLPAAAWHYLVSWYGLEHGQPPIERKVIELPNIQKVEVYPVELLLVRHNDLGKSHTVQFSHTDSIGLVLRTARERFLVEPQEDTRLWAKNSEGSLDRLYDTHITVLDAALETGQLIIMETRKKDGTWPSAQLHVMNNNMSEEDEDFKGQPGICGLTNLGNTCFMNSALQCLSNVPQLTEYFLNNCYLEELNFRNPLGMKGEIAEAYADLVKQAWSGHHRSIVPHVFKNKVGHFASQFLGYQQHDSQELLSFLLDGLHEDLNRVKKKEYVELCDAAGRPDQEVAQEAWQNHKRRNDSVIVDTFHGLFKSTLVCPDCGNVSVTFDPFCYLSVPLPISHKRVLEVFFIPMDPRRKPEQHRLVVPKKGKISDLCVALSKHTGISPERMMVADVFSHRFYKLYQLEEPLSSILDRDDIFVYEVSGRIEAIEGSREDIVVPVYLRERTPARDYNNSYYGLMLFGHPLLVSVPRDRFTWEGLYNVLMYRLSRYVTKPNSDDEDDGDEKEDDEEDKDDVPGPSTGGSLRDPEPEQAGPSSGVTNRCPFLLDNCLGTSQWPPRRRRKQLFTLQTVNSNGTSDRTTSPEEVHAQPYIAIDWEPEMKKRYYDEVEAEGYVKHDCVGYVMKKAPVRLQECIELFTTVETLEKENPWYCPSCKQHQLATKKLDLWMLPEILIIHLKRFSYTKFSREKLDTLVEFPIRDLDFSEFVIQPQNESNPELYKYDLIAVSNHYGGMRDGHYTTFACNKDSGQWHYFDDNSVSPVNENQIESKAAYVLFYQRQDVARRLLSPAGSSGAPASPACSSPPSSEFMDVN

What is called Kd is the concentration at which binding is half-saturated. Regarding `O=C(O)[C@@H]1CCCN1` [IsoLiPro], the Kd came to 43.4 µM.
